Measured values reported in PubChem BioAssay AID1259407 (Chemical Carcinogenesis Research Information System (CCRIS), 2018).
Active and inactive are the calls of the source. The rule behind the calls is not given here.

Tested on: CCRIS mutagenicity, Ames/micronucleus/aberration tests
Assay: CCRIS mutagenicity studies

Measured: mutagenic call

O=NN1CCOCC1
active: End Point: IN VITRO CHROMOSOMAL ABERRATIONS, Test System: HEPG2 HEPATOMA (HUMAN), Metabolic Activation: NONE active; positive | End Point: IN VITRO CHROMOSOMAL ABERRATIONS, Test System: V79 CELLS, Metabolic Activation: NONE active; positive | Test System: AMES SALMONELLA TYPHIMURIUM, Strain/Indicator: TA100, Metabolic Activation: HAMSTER, LIVER, S-9, AROCLOR 1254 (30%), Method: PREINCUBATION active; positive | Test System: AMES SALMONELLA TYPHIMURIUM, Strain/Indicator: TA100, Metabolic Activation: RAT, LIVER, S-9, AROCLOR 1254 (30%), Method: PREINCUBATION active; positive | Test System: AMES SALMONELLA TYPHIMURIUM, Strain/Indicator: TA100, Metabolic Activation: RAT, LIVER, S-9, AROCLOR 1254, Method: PREINCUBATION active; positive | Test System: AMES SALMONELLA TYPHIMURIUM, Strain/Indicator: TA100, Metabolic Activation: S-9, Method: PREINCUBATION active; positive | Test System: AMES SALMONELLA TYPHIMURIUM, Strain/Indicator: TA104, Metabolic Activation: RAT, LIVER, S-9, AROCLOR 1254, Method: PREINCUBATION active; positive | Test System: AMES SALMONELLA TYPHIMURIUM, Strain/Indicator: TA1530, Metabolic Activation: RAT, LIVER, S-9, Method: STANDARD PLATE active; positive | Test System: AMES SALMONELLA TYPHIMURIUM, Strain/Indicator: TA1535, Metabolic Activation: RAT, LIVER, HEPATOCYTES, Method: PREINCUBATION active; positive | Test System: AMES SALMONELLA TYPHIMURIUM, Strain/Indicator: TA1535, Metabolic Activation: RAT, LIVER, S-9, AROCLOR 1254, Method: PREINCUBATION active; positive | Test System: AMES SALMONELLA TYPHIMURIUM, Strain/Indicator: TA1535, Metabolic Activation: RAT, LIVER, S-9, AROCLOR, Method: PREINCUBATION active; positive | Test System: AMES SALMONELLA TYPHIMURIUM, Strain/Indicator: TA1535, Metabolic Activation: RAT, LIVER, S-9, SODIUM PHENOBARBITONE, Method: PREINCUBATION active; positive | Test System: AMES SALMONELLA TYPHIMURIUM, Strain/Indicator: TA1535, Metabolic Activation: RAT, LIVER, S-9, Method: PREINCUBATION active; positive | Test System: AMES SALMONELLA TYPHIMURIUM, Strain/Indicator: TA1975, Metabolic Activation: RAT, LIVER, S-9, AROCLOR 1254, Method: PREINCUBATION active; positive | Test System: CHINESE HAMSTER V-79, Strain/Indicator: V-79/8-AZAGUANINE, Metabolic Activation: RAT, LIVER, S-15, PHENOBARBITAL, Method: STANDARD PLATE active; positive | Test System: UDS RODENT HEPATOCYTES, Strain/Indicator: THY INCORP (NON-S-PHASE), Method: AUTORADIOGRAPHY active; positive
inactive: End Point: IN VITRO CHROMOSOMAL ABERRATIONS, Test System: VH10 CELLS (HUMAN), Metabolic Activation: NONE inactive; negative | Test System: AMES SALMONELLA TYPHIMURIUM, Strain/Indicator: TA98, Metabolic Activation: HAMSTER, LIVER, S-9, AROCLOR 1254 (30%), Method: PREINCUBATION inactive; negative | Test System: AMES SALMONELLA TYPHIMURIUM, Strain/Indicator: TA98, Metabolic Activation: NONE, Method: PREINCUBATION inactive; negative | Test System: AMES SALMONELLA TYPHIMURIUM, Strain/Indicator: TA98, Metabolic Activation: RAT, LIVER, S-9, AROCLOR 1254 (30%), Method: PREINCUBATION inactive; negative | Test System: AMES SALMONELLA TYPHIMURIUM, Strain/Indicator: TA98, Metabolic Activation: S-9, Method: PREINCUBATION inactive; negative | Test System: AMES SALMONELLA TYPHIMURIUM, Strain/Indicator: TA100, Metabolic Activation: NONE, Method: PREINCUBATION inactive; negative | Test System: AMES SALMONELLA TYPHIMURIUM, Strain/Indicator: TA100, Metabolic Activation: TOBACCO CELLS, Method: PREINCUBATION inactive; negative | Test System: AMES SALMONELLA TYPHIMURIUM, Strain/Indicator: TA1535, Metabolic Activation: NONE, Method: PREINCUBATION inactive; negative

CC(=O)c1oc([N+](=O)[O-])c(Cl)c1Cl
active: Test System: AMES SALMONELLA TYPHIMURIUM, Strain/Indicator: TA98, Metabolic Activation: NONE, Method: STANDARD PLATE active; positive | Test System: AMES SALMONELLA TYPHIMURIUM, Strain/Indicator: TA100 (NR), Metabolic Activation: NONE, Method: STANDARD PLATE active; positive | Test System: AMES SALMONELLA TYPHIMURIUM, Strain/Indicator: TA100, Metabolic Activation: NONE, Method: STANDARD PLATE active; positive | Test System: AMES SALMONELLA TYPHIMURIUM, Strain/Indicator: TA100, Metabolic Activation: NONE, Method: STANDARD PLATE (ANAEROBIC INCUBATION) active; positive

Nc1nc(N)c(-c2ccccc2)s1
active: Test System: MOUSE LYMPHOMA, Strain/Indicator: L5178Y (TK+/TK-), Metabolic Activation: NONE, Method: SUSPENSION/PLATE active; positive. reevaluation of results: inconclusive | Test System: MOUSE LYMPHOMA, Strain/Indicator: L5178Y (TK+/TK-), Metabolic Activation: RAT, LIVER, S-9, AROCLOR 1254, Method: SUSPENSION/PLATE active; positive. reevaluation of results: inconclusive

C/C=C1/C[C@@H](C)[C@](O)(CO)C(=O)OCC2=CCN3CC[C@@H](OC1=O)[C@@H]23
inactive: Test System: AMES SALMONELLA TYPHIMURIUM, Strain/Indicator: TA97A, Metabolic Activation: RAT, LIVER, S-9, SODIUM PHENOBARBITAL AND BETA-NAPHTHOFLAVONE, Method: PREINCUBATION inactive; negative | Test System: AMES SALMONELLA TYPHIMURIUM, Strain/Indicator: TA97A, Metabolic Activation: RAT, LIVER, S-9, SODIUM PHENOBARBITAL AND BETA-NAPHTHOFLAVONE, Method: STANDARD PLATE inactive; negative | Test System: AMES SALMONELLA TYPHIMURIUM, Strain/Indicator: TA98, Metabolic Activation: RAT, LIVER, S-9, SODIUM PHENOBARBITAL AND BETA-NAPHTHOFLAVONE, Method: PREINCUBATION inactive; negative | Test System: AMES SALMONELLA TYPHIMURIUM, Strain/Indicator: TA98, Metabolic Activation: RAT, LIVER, S-9, SODIUM PHENOBARBITAL AND BETA-NAPHTHOFLAVONE, Method: STANDARD PLATE inactive; negative | Test System: AMES SALMONELLA TYPHIMURIUM, Strain/Indicator: TA100, Metabolic Activation: RAT, LIVER, S-9, SODIUM PHENOBARBITAL AND BETA-NAPHTHOFLAVONE, Method: PREINCUBATION inactive; negative | Test System: AMES SALMONELLA TYPHIMURIUM, Strain/Indicator: TA100, Metabolic Activation: RAT, LIVER, S-9, SODIUM PHENOBARBITAL AND BETA-NAPHTHOFLAVONE, Method: STANDARD PLATE inactive; negative | Test System: AMES SALMONELLA TYPHIMURIUM, Strain/Indicator: TA1535, Metabolic Activation: RAT, LIVER, S-9, SODIUM PHENOBARBITAL AND BETA-NAPHTHOFLAVONE, Method: PREINCUBATION inactive; negative | Test System: AMES SALMONELLA TYPHIMURIUM, Strain/Indicator: TA1535, Metabolic Activation: RAT, LIVER, S-9, SODIUM PHENOBARBITAL AND BETA-NAPHTHOFLAVONE, Method: STANDARD PLATE inactive; negative | Test System: AMES SALMONELLA TYPHIMURIUM, Strain/Indicator: TA1538, Metabolic Activation: RAT, LIVER, S-9, SODIUM PHENOBARBITAL AND BETA-NAPHTHOFLAVONE, Method: PREINCUBATION inactive; negative | Test System: AMES SALMONELLA TYPHIMURIUM, Strain/Indicator: TA1538, Metabolic Activation: RAT, LIVER, S-9, SODIUM PHENOBARBITAL AND BETA-NAPHTHOFLAVONE, Method: STANDARD PLATE inactive; negative
